pIC50: −log10 of the molar value.
Legend:
human mGlu3 = biological target: T1, human mGlu3 (Homo sapiens, UniProt Q14832); assay: mGlu GIRK cell-based thallium flux assay, human mGlu3; conditions: HEK-293 cells co-expressing human mGlu3 and GIRK, EC80 glutamate, single experiment
T1 construct: expressed in transfected cells; host or cells: HEK-293 stably co-expressing GIRK channels
Protocol: (§1) Human embryonic kidney (HEK-293) cell lines stably co-expressing human or rat mGlu2 and G protein-coupled inwardly rectifying potassium (GIRK) channels, or human mGlu3 and GIRK, were used for in vitro evaluation of compound activity in thallium flux assay using a fluorescent thallium indicator dye.
(§2) The day before the assay, GIRK cells co-expressing human mGlu3, human or rat mGlu2, as described above, were plated in black-walled, clear-bottomed, amine-coated 384-well plates at a density of 15,000 cells/[…]/well in the assay medium (glutamine-depleted basal DMEM supplemented with 10% dialyzed FBS, 20 mM HEPES, 1 mM sodium pyruvate). Cells were incubated at 37° C. in the presence of 5% CO2. The next day, assay buffer (Hanks balanced salt solution, 20 mM HEPES, 4.16 mM sodium bicarbonate, pH 7.2) was prepared to dilute compounds and Thallos AM fluorescent dye solution. The 2× Thallos dye solution (final concentration 0.34 μM to the cells) was prepared by mixing the dye stock (2.97 mM in DMSO) to 1:1 with 10% pluronic acid before adding to the assay buffer. Cells were washed with assay buffer using a microplate washer to remove the medium, resulting in 20 μL of buffer remaining in each well. […] During the cell dye loading incubation period, a 10-point concentration serial dilution of compound was created from a 10 mM DMSO compound stock by performing a 1:3 serial dilution in DMSO using the Bravo liquid handler. The 2× compound plate was generated by transferring 0.24 μL of the diluted compound in each well to a daughter plate using an Echo acoustic liquid handler. This is further diluted in 40 μL assay buffer, resulting in a range from […] to 1.5 nM final concentration in the assay. The agonist plate (5×) was prepared to include EC80 glutamate concentration (a concentration to elicit 80% of a maximally effective glutamate concentration) in thallium buffer (125 mM sodium bicarbonate, 1 mM magnesium sulfate, 1.8 mM calcium sulfate, 5 mM glucose, 10 mM HEPES, pH 7.2, 12.5 mM thallium sulfate).
(§3) After dye-loading, cell plates were washed with assay buffer to remove excess extracellular dye using a microplate washer, resulting in 20 μL of buffer remaining in each well. After a ten-minute equilibration period, cell, compound and agonist plates were loaded into a Hamamatsu μCell kinetic imaging plate reader equipped with liquid handler to monitor fluorescence changes at 480 nm excitation and 540 nm emission settings. Briefly, after collection of baseline fluorescence, 20 μL of compound was added and incubated for two minutes and twenty seconds. This is immediately followed by adding 10 μL of glutamate-thallium buffer to the wells containing compound. The fluorescent signal was monitored an additional 2.5 minutes after the glutamate addition. Multiple reference wells containing no compound received either no glutamate (for a baseline reference), EC80 glutamate, or ECmax glutamate (for normalization to maximum response). […] Each compound concentration series occurred one time in each plate, and replicates from two or three plates were used in each experimental run. Thallium solutions were handled and disposed of according to guidelines from the Vanderbilt University Chemical Safety department.
(§4) Data were normalized using a static ratio function (F/F0) by dividing every fluorescent measurement by the initial fluorescent value for the corresponding well. The increase in signal resulting from the glutamate/thallium addition of the second add was measured by determining the slope from 3 seconds to 13 seconds after the addition. The average of all baseline slopes (no compound, no glutamate) was determined and this value was subtracted from all other slope values. The average of all ECmax slopes was determined and this value was used to normalize the baseline-corrected slopes to a percent max value (% Emax).

human mGlu2 = biological target: T2, human mGlu2 (Homo sapiens, UniProt Q14416); assay: mGlu GIRK cell-based thallium flux assay, human mGlu2; conditions: HEK-293 cells co-expressing human mGlu2 and GIRK, EC80 glutamate, single experiment
T2 construct: expressed in transfected cells; host or cells: HEK-293 stably co-expressing GIRK channels
Protocol: as §1, §2, §3, §4

T2 sequence (Q14416 19-872): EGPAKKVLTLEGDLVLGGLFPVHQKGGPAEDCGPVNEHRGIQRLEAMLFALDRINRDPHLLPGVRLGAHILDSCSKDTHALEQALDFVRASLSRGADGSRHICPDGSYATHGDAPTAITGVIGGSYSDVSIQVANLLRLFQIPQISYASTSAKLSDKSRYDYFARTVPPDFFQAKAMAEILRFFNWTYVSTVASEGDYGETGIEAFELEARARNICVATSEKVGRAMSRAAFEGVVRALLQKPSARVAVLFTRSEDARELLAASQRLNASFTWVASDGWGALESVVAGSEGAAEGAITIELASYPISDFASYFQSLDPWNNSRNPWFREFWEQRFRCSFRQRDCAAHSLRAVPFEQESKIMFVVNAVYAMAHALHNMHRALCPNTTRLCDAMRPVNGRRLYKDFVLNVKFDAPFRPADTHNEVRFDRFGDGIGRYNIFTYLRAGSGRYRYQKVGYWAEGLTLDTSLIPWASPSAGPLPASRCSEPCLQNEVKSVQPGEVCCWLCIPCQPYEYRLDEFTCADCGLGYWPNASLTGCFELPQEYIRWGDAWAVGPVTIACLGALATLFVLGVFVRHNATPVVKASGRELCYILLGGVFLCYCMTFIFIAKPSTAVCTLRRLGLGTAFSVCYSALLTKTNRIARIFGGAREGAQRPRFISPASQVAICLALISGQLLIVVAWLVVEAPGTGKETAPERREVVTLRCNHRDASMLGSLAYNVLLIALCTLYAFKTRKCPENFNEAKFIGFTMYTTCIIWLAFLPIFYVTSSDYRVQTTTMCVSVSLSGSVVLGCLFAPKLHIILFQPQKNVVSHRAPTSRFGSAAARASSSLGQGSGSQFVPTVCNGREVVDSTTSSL
T1 sequence (Q14832 23-879): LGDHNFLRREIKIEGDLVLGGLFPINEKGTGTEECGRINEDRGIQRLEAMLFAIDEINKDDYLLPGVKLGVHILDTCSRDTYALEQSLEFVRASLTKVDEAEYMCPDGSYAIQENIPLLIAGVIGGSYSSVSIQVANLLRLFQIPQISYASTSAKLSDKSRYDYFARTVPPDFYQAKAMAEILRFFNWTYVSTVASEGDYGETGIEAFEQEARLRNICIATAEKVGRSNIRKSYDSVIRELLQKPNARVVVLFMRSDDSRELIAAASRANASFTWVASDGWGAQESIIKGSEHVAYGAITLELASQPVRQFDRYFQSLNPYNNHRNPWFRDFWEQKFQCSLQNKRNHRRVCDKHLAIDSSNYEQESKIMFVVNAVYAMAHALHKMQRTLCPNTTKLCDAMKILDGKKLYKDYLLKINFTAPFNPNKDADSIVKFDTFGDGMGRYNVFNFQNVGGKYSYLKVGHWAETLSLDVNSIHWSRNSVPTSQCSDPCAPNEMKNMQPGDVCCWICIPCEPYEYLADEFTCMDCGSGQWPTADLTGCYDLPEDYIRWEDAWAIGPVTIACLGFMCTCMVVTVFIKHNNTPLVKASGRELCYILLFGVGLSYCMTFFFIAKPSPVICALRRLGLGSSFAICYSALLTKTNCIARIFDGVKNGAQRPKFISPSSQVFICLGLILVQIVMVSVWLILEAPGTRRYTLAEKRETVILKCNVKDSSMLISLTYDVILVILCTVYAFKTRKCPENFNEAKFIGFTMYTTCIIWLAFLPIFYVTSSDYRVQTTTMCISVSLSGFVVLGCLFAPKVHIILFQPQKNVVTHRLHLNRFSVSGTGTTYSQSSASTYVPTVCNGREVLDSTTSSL

| pIC50 (human mGlu3) | pIC50 (human mGlu2) | Human mGlu3 GIRK IC50 (nM) (human mGlu3) | Structure (SMILES) |
| --- | --- | --- | --- |
| < 5.00 | 6.41 |  | N#CC1CCCN(c2cc(-c3ccc(F)cc3F)cc3c2CNC3=O)C1 (centres unmarked) [Compound A10, 1-(6-(2,4-difluorophenyl)-1-oxoisoindolin-4-yl)piperidine-3-carbonitrile] |
| < 5.00 | 6.42 |  | O=C1NCc2c1cc(-c1ccc(F)cc1F)cc2N1CCOCC1 [Compound A4, 6-(2,4-difluorophenyl)-4-morpholinoisoindolin-1-one] |
| < 5.00 | 5.40 |  | CC1(C)CCN(c2cc(-c3ccc(F)cc3F)cc3c2CNC3=O)CC1 [Compound A16, 6-(2,4-difluorophenyl)-4-(4,4-dimethylpiperidin-1-yl)isoindolin-1-one] |
| < 5.00 | < 5.00 |  | O=C1NCc2c1cc(-c1ccc(F)cc1F)cc2C1CCNC1 (centres unmarked) [Compound B6, 6-(2,4-difluorophenyl)-4-(pyrrolidin-3-yl)isoindolin-1-one] |
| < 5.00 | 5.83 |  | CN1CCCC(c2cc(-c3ccc(F)cc3F)cc3c2CNC3=O)C1 (centres unmarked) [Compound B3, 6-(2,4-difluorophenyl)-4-(1-methylpiperidin-3-yl)isoindolin-1-one] |
|  | 6.66 | Inactive | O=C1NCc2c1cc(-c1ccc(F)cc1F)cc2N1CCn2nccc21 [Compound A2, 6-(2,4-difluorophenyl)-4-(2,3-dihydro-1H-imidazo[1,2-b]pyrazol-1-yl)isoindolin-1-one] |
| 5.01 | 6.31 |  | COC1CCCN(c2cc(-c3ccc(F)cc3F)cc3c2CNC3=O)C1 (centres unmarked) [Compound A18, 6-(2,4-difluorophenyl)-4-(3-methoxypiperidin-1-yl)isoindolin-1-one] |

The next lines start with the molecule.

| Structure (SMILES) | pIC50 (human mGlu3) | pIC50 (human mGlu2) | Human mGlu3 GIRK IC50 (nM) (human mGlu3) |
| --- | --- | --- | --- |
| Cc1nc(F)ccc1-c1cc(-c2ccc(F)cc2F)cc2c1CNC2=O [Compound 72, 6-(2,4-difluorophenyl)-4-(6-fluoro-2-methylpyridin-3-yl)isoindolin-1-one] | < 5.00 | 6.98 |  |
| O=C1NCc2c1cc(-c1ccc(F)cc1F)cc2-c1ccc[nH]c1=O [Compound 64, 6-(2,4-difluorophenyl)-4-(2-oxo-1,2-dihydropyridin-3-yl)isoindolin-1-one] |  | 6.53 | Inactive |
| O=C1NCc2c1cc(-c1ccc(F)cc1F)cc2-c1cnn(C2CCOC2)c1 (centres unmarked) [Compound 63, 6-(2,4-difluorophenyl)-4-(1-(tetrahydrofuran-3-yl)-1H-pyrazol-4-yl)isoindolin-1-one] |  | 6.69 | Inactive |
| O=C1NCc2c1cc(-c1ccc(F)cc1F)cc2-c1ccc(F)nc1F [Compound 73, 6-(2,4-difluorophenyl)-4-(2,6-difluoropyridin-3-yl)isoindolin-1-one] | < 5.00 | 6.80 |  |
| CC(C)n1nccc1-c1cc(C2=CCOCC2)cc2c1CNC2=O [Compound 86, 6-(3,6-dihydro-2H-pyran-4-yl)-4-(1-isopropyl-1H-pyrazol-5-yl)isoindolin-1-one] |  | 6.76 | Inactive |
| Cc1ccc(-c2cc(-c3ccc(F)cc3F)cc3c2CNC3=O)cn1 [Compound 5, 6-(2,4-difluorophenyl)-4-(6-methylpyridin-3-yl)isoindolin-1-one] | < 5.00 | 7.00 |  |
| CC(C)n1nccc1-c1cc(-c2ccc(F)cc2F)cc2c1CNC2=O [Compound 30, 6-(2,4-difluorophenyl)-4-(1-isopropyl-1H-pyrazol-5-yl)isoindolin-1-one] | < 5.00 | 6.90 |  |
| O=C1NCc2c1cc(-c1ccc(F)cc1F)cc2-c1ccc(C2CC2)nc1 [Compound 36, 4-(6-cyclopropylpyridin-3-yl)-6-(2,4-difluorophenyl)isoindolin-1-one] | < 5.00 | 5.91 |  |
| O=C1NCc2c1cc(-c1ccc(F)cc1F)cc2-c1ccc2nccn2c1 [Compound 38, 6-(2,4-difluorophenyl)-4-(imidazo[1,2-a]pyridin-6-yl)isoindolin-1-one] | 5.19 | 6.70 |  |

Reference: patent US20260226019A1, “NEGATIVE ALLOSTERIC MODULATORS OF METABOTROPIC GLUTAMATE RECEPTOR 2” (Vanderbilt University, priority 2023, published 2026)
